This series is described as follows: passive permeability, PAMPA, ADME assay (AID 1508612). The conditions noted are these: pH 7.4, 30.0 min, 50.0 µM.

Broadly, the Papp is the rate of passage across a membrane or cell layer, normalised by area and donor concentration. Read a low Papp as slow passage. For `O=C(c1cccs1)c1nonc1C(=O)c1cccs1`, the Papp came out at 806 ×10⁻⁶ cm/s.

`C=C1C(=O)OC2C1CCC(C)C1(O)C=CC(=O)C21C` (centres undefined) displayed an apparent permeability coefficient (Papp) of 64.6 ×10⁻⁶ cm/s.

For `Cc1ccc(S(=O)(=O)Nc2ccc(Br)cc2C(=O)Nc2nc(-c3ccccc3)cs2)cc1`, the Papp turned out to be 2.4 ×10⁻⁶ cm/s.

For `CC[C@H](NC(=O)c1c(O)c(-c2ccccc2)nc2ccccc12)c1ccccc1`, the Papp stood at 298 ×10⁻⁶ cm/s.

For the molecule `O=C(Nc1nc(-c2ccccc2)cs1)c1ccncc1NS(=O)(=O)c1ccc(C(F)(F)F)cc1`, the Papp was 316 ×10⁻⁶ cm/s.

`CCCN(CCC)CCc1cccc2c1CC(=O)N2` came in with an apparent permeability (Papp) of 179 ×10⁻⁶ cm/s.

Molecule `O=C(Cc1cccc(OC(F)(F)F)c1)Nc1ccc(CCCCc2nnc(NC(=O)Cc3ccccn3)s2)nn1` yielded a Papp of 161 ×10⁻⁶ cm/s.

As to `Cc1ccc(S(=O)(=O)Nc2cnccc2C(=O)Nc2nc(-c3ccco3)cs2)cc1`, the Papp was found to be 297 ×10⁻⁶ cm/s.

Molecule `CNc1nc(-c2cccc3ccccc23)ccc1C#N` returned a Papp of 985 ×10⁻⁶ cm/s.

Molecule `Oc1ccc(CNc2ccc(C(F)(F)F)cc2F)c2cccnc12` came in with a Papp of 150 ×10⁻⁶ cm/s.

`COC[C@@H]1CN(C(=O)c2n[nH]c3ccccc23)C[C@H]1c1nc(C)no1` came in with a Papp of 66.8 ×10⁻⁶ cm/s.

Regarding `O=C1Cc2cc(C(=O)c3ccco3)ccc2N1`, the Papp was found to be 35.2 ×10⁻⁶ cm/s.

`Cc1cccc(C(=O)N2CCc3cc(-c4nc(NC(=O)Cc5ccc6c(c5)OCO6)sc4C)ccc32)c1` returned a Papp of 59 ×10⁻⁶ cm/s.

`COc1ccc(NC(=O)c2cc(-c3ccc[nH]3)n[nH]2)cc1OC` returned a Papp of 120 ×10⁻⁶ cm/s.

Molecule `Cn1c2cc(S(C)=O)sc2c2cnn(Cc3cccc(N)c3)c(=O)c21` (centres undefined) showed an apparent permeability (Papp) of 106 ×10⁻⁶ cm/s.

`Nc1ccc(CNc2ccc([S+](=O)([O-])Nc3nccs3)cc2)c(O)c1` gave a Papp of less than 1 ×10⁻⁶ cm/s.

On to `COCCn1ccc2c(C3=CCOCC3)nc(-c3cccc(NC(C)=O)c3)cc21`, for which the Papp worked out at 464 ×10⁻⁶ cm/s.

`Cn1ccc2c(C(=O)NCC3CCC(=O)N3)nc(-c3ccccc3C#N)cc21` (centres undefined) gave a Papp of 265 ×10⁻⁶ cm/s.

`Cc1ccc(C)c(CN2C(=O)c3ccccc3S(=O)c3ccc(C(=O)N4CCN(c5ccccc5F)CC4)cc32)c1` (centres undefined) yielded a Papp greater than 1000 ×10⁻⁶ cm/s.

Turning to `Cc1ccnc(NC(=S)N2CCCC(Nc3cccc(C(F)(F)F)c3)C2)c1` (centres undefined), the apparent permeability coefficient (Papp) is greater than 1000 ×10⁻⁶ cm/s.

As to `COc1ccccc1S(=O)(=O)Nc1cnccc1C(=O)Nc1nc(-c2ccccc2)cs1`, the Papp worked out at 387 ×10⁻⁶ cm/s.

With `O=C(c1ccc2c(c1)ncn2-c1ccc(Cl)cc1)N1CCCCC1`, the Papp was greater than 1000 ×10⁻⁶ cm/s.

`COc1ccccc1-c1[nH]nc2ncc(-c3ccc(C)cc3)nc12` gave an apparent permeability coefficient (Papp) of 76.2 ×10⁻⁶ cm/s.

Molecule `CC(C)(C)c1cc(NC(=O)Nc2ccc(-c3cn4c(n3)sc3cc(OCCN5CCOCC5)ccc34)cc2)no1` registered an apparent permeability (Papp) of less than 1 ×10⁻⁶ cm/s.

As for `Cc1ccnc(NC(=S)N2CCN(c3ncc(C(F)(F)F)cc3Cl)CC2)c1`, the Papp is 930 ×10⁻⁶ cm/s.

In turn, `COc1ccc(-n2nc(C3CCN([S+](=O)([O-])c4cccc(C(F)(F)F)c4)CC3)[nH]c2=O)cc1` returned a Papp of 242 ×10⁻⁶ cm/s.

On to `O=C1CCc2ccc(OCCCCN3CCN(c4cccc(Cl)c4Cl)CC3)cc2N1`, for which the Papp was greater than 1000 ×10⁻⁶ cm/s.

Take `CC(C)(O)/C=C\C(=O)[C@](C)(O)[C@H]1[C@H](O)C[C@]2(C)[C@@H]3CC=C4[C@@H](C=C(O)C(=O)C4(C)C)[C@]3(C)C(=O)C[C@@]12C`: the Papp is 184 ×10⁻⁶ cm/s.

In turn, `N[C@H]1CN(c2c(F)cc3c(=O)c(C(=O)O)cn(C4C[C@@H]4F)c3c2Cl)CC12CC2` (some centres undefined) yielded a Papp of less than 1 ×10⁻⁶ cm/s.

With `OCc1ccc(-c2ccc(-c3ccc(CO)s3)o2)s1`, the Papp worked out at 956 ×10⁻⁶ cm/s.

Regarding `CC(C)c1ccc(S(=O)(=O)c2cnc(SCC(=O)Nc3ccc4c(c3)OCCO4)[nH]c2=O)cc1`, the Papp was determined as 1.84 ×10⁻⁶ cm/s.

`CC(C)Oc1ccc(C(=O)Nc2ccc3c(c2)CCCN3C(=O)c2cccs2)cc1` returned a Papp of 491 ×10⁻⁶ cm/s.

Consider `Cc1ccc(-c2csc(Nc3ccc(S(=O)(=O)Nc4nccs4)cc3)n2)cc1C`, for which the Papp amounted to 22 ×10⁻⁶ cm/s.

Molecule `O=C(NC1CCCCC1)N1Cc2[nH]cnc2C[C@H]1c1nc(-c2cccc([N+](=O)[O-])c2)no1` yielded a Papp of 202 ×10⁻⁶ cm/s.

For `CCOc1ccc(CCNC(=O)c2cc3sccc3n2Cc2ccccc2)c(F)c1OCC`, the Papp is less than 1 ×10⁻⁶ cm/s.

`COc1ccccc1CNS(=O)(=O)c1ccc(-c2cnc(C3CC3)o2)cc1` registered a Papp greater than 1000 ×10⁻⁶ cm/s.

On to `O=c1cc(-c2nc(Nc3ccc(F)c(F)c3)c3ccccc3n2)cc[nH]1`, for which the Papp was found to be 396 ×10⁻⁶ cm/s.

In the case of `CCN(CCCOc1ccc2c(Nc3cc(CC(=O)Nc4cccc(F)c4)[nH]n3)ncnc2c1)CCOP(=O)(O)O`, the Papp is less than 1 ×10⁻⁶ cm/s.

Consider `COc1cc(Cl)c(C)cc1NS(=O)(=O)c1c(C)nc2sccn2c1=O`, for which the Papp came out at 787 ×10⁻⁶ cm/s.

Consider `CCCc1cc(=O)oc2c3c(c4c(c12)OC(C)(C)C=C4)OC(C)C(C)C3O` (centres undefined), for which the Papp is greater than 1000 ×10⁻⁶ cm/s.

In turn, `C#CCNC(=O)c1nc(-c2ccc([S+](C)(=O)[O-])cc2)c2ccccn12` gave a Papp of 545 ×10⁻⁶ cm/s.

For `c1cn2cc(-c3ccc4cn[nH]c4c3)nc(Nc3ccc(N4CCOCC4)cc3)c2n1`, the Papp is 391 ×10⁻⁶ cm/s.

`COCC(C)Nc1ncnc2c1cnn2-c1ccc(C)c(C)c1` (centres undefined) displayed a Papp of 690 ×10⁻⁶ cm/s.

With `O=C(NCCO)c1cccc(-c2cc(Nc3ccc(OC(F)(F)F)cc3)ncn2)c1`, the Papp was determined as 472 ×10⁻⁶ cm/s.

`Cn1ccc2c(C(=O)NCc3cccnc3)nc(-c3ccc(CO)cc3)cc21` registered a Papp of 317 ×10⁻⁶ cm/s.

For the molecule `O=C(Nc1nc(-c2ccc(F)cc2)cs1)c1ccncc1NS(=O)(=O)c1ccc(F)cc1`, the apparent permeability coefficient (Papp) came to 755 ×10⁻⁶ cm/s.

In turn, `CC(Nc1nc(N2CCN(S(C)(=O)=O)CC2)nc2ccccc12)c1ccccc1` (centres undefined) had a Papp greater than 1000 ×10⁻⁶ cm/s.

In the case of `NS(=O)(=O)c1ccc(Cc2c(-c3cccc(-c4ccccc4)c3)nn(-c3nc(C(=O)O)cs3)c2CC2CC2)cc1`, the Papp came to 3.4 ×10⁻⁶ cm/s.

`NC(=O)C1CCN(c2ncc(-c3cccc(N4CCOCC4)c3)s2)CC1` yielded a Papp of 374 ×10⁻⁶ cm/s.

Regarding `Nc1ncnc2c1ncn2[C@H]1O[C@@H](CO)[C@@H](O)[C@H]1N`, the Papp came to 2.99 ×10⁻⁶ cm/s.

As for `Cc1onc(-c2ccccc2)c1C(=O)Nc1nnc(COc2ccc(Cl)cc2)s1`, the Papp was 247 ×10⁻⁶ cm/s.

`Nc1nc2c(s1)C(c1cc(Cl)ccc1F)CC(=O)N2` (centres undefined) showed a Papp of 476 ×10⁻⁶ cm/s.

In the case of `COc1ccc(NC(=O)c2cccnc2C)cc1S(=O)(=O)Nc1ccc(Br)cc1`, the Papp is 522 ×10⁻⁶ cm/s.

`CCOc1ccc(CCNC(=O)c2cc3ccccc3n2C)cc1OCC` gave a Papp greater than 1000 ×10⁻⁶ cm/s.

In the case of `CN(C)c1ccc(-c2cc[nH]c(=O)c2N)cc1`, the apparent permeability coefficient (Papp) was 116 ×10⁻⁶ cm/s.

Consider `O=C(Nc1ncccc1O)c1ccc(S(=O)(=O)Nc2ccccc2)cc1`, for which the Papp was 344 ×10⁻⁶ cm/s.

Regarding `COc1cccc(CNCCSc2nnnn2C)c1OCc1ccc(Cl)cc1Cl`, the Papp was greater than 1000 ×10⁻⁶ cm/s.

`COc1ccc(-n2nc(C3CCN([S+](=O)([O-])c4c(C)noc4C)CC3)[nH]c2=O)cc1`: the Papp was determined as 403 ×10⁻⁶ cm/s.

Molecule `COc1ccccc1NC(=O)C1=C(C)Nc2c(C(=O)Nc3cccc(C)c3)cnn2C1c1ccccc1Cl` (centres undefined) yielded a Papp of 751 ×10⁻⁶ cm/s.

The molecule `COc1cc(C2CC(=O)Nc3cc4c(cc32)OCCO4)cc(Br)c1OC` (centres undefined) showed a Papp of 376 ×10⁻⁶ cm/s.

`NC1(c2ccccc2Cl)CCCCC1=O` (centres undefined) gave a Papp of 62 ×10⁻⁶ cm/s.

`NS(=O)(=O)c1ccc(NC(=O)c2cc3ncccn3n2)cc1`: the Papp came to 82.5 ×10⁻⁶ cm/s.

As to `Oc1ccc(C(=S)N2CCN(c3cccc(Cl)c3)CC2)cc1`, the Papp was 677 ×10⁻⁶ cm/s.

In turn, `COc1ccccc1CNc1ccc(S(=O)(=O)Nc2nccs2)cc1` had a Papp of 512 ×10⁻⁶ cm/s.

On to `Fc1ccc(Nc2nc(Nc3ccncc3)nc3ccccc23)cc1F`, for which the Papp is 40.4 ×10⁻⁶ cm/s.

On to `CCOC(=O)c1[nH]c(C)c(CCC(=O)N2CCN(c3cccc(C)c3C)CC2)c1C`, for which the Papp is greater than 1000 ×10⁻⁶ cm/s.

`Oc1ccc(CNc2ccccc2C(F)(F)F)c2cccnc12` returned a Papp of 17 ×10⁻⁶ cm/s.

For `CC(C)c1ccc2oc3nc(N)c(C(=O)O)cc3c(=O)c2c1`, the Papp stood at 9.71 ×10⁻⁶ cm/s.

For the molecule `Cc1ccc(S(=O)(=O)Nc2cnccc2C(=O)Nc2ccc(N3CCOCC3)cc2)cc1`, the Papp was determined as 53.3 ×10⁻⁶ cm/s.

Regarding `CCCCn1cnc2cc(NCc3ccc(OCC)cc3)ccc21`, the Papp was greater than 1000 ×10⁻⁶ cm/s.

The molecule `C1CCc2nc3c(nc2C1)CCCC3` gave an apparent permeability (Papp) of 257 ×10⁻⁶ cm/s.

Take `Cc1cnc(-c2ccccc2C2COC2)nc1NCc1ccc(-n2ccnn2)cc1`: the Papp is less than 1 ×10⁻⁶ cm/s.

As for `O=C(Nc1ccccc1C(=O)Nc1ccccc1C(=O)NCc1ccco1)c1ccco1`, the Papp is greater than 1000 ×10⁻⁶ cm/s.

In the case of `Fc1cc(Nc2nc(-c3ccncc3)nc3ccccc23)ccc1OC(F)(F)F`, the Papp was 552 ×10⁻⁶ cm/s.

`CCOC(=O)c1ccc(NC2CCCCC2)c(N)c1`: the Papp was greater than 1000 ×10⁻⁶ cm/s.

On to `Fc1ccc(Nc2nc(-c3ccncc3)ncc2-c2ccccc2)cc1F`, for which the Papp was less than 1 ×10⁻⁶ cm/s.

Take `O=[S+]([O-])(Nc1nccs1)c1ccc(NCc2cccc(Cl)c2)cc1`: the Papp was determined as 395 ×10⁻⁶ cm/s.

`O=C(Nc1ccc(Cl)c(S(=O)(=O)N2CCOCC2)c1)c1ccccc1` yielded a Papp of 728 ×10⁻⁶ cm/s.

`COc1cccc(CNCc2cccn2-c2nnc(N3CCN(c4ccccc4)CC3)s2)c1` registered a Papp greater than 1000 ×10⁻⁶ cm/s.

`O=C(NCc1ccc(S(=O)(=O)c2cccc(C(F)(F)F)c2)cc1)c1cnc2[nH]ncc2c1`: the Papp came to 797 ×10⁻⁶ cm/s.

`C=CCc1ccc(O)c(-c2ccc(O)c(CC=C)c2)c1` displayed a Papp greater than 1000 ×10⁻⁶ cm/s.

For the molecule `O=C(Nc1ccc(S(=O)(=O)Nc2nccs2)cc1)c1ccncc1`, the Papp came out at 1.4 ×10⁻⁶ cm/s.

`NC(=O)C1CCN(c2ncc(-c3ccc4c(c3)OCCO4)s2)CC1` returned an apparent permeability coefficient (Papp) of 710 ×10⁻⁶ cm/s.

`Cc1ccc(S(=O)(=O)NCc2ccccc2)cc1` displayed a Papp of 537 ×10⁻⁶ cm/s.

Turning to `Cc1ccccc1C(=O)N1CCc2cc(-c3nc(NC(=O)c4ccc5c(c4)OCO5)sc3C)ccc21`, the Papp came to 569 ×10⁻⁶ cm/s.

The molecule `CC(=O)c1c(C)[nH]c(C(=O)Nc2cccc([S+](=O)([O-])Nc3cccnc3)c2)c1C` registered a Papp of 16.5 ×10⁻⁶ cm/s.

For `NC(=O)C1CCN(c2nc(-c3ccc(F)cc3)cs2)CC1`, the apparent permeability coefficient (Papp) turned out to be 198 ×10⁻⁶ cm/s.

In turn, `CCOc1ccc(CCNC(=O)c2ccnn2Cc2cccc(C)c2)cc1OCC` displayed a Papp greater than 1000 ×10⁻⁶ cm/s.

Regarding `COc1cc2nccc(Oc3ccc(NC(=O)Nc4cc(C)on4)c(Cl)c3)c2cc1OC`, the Papp turned out to be 328 ×10⁻⁶ cm/s.

In the case of `O=C(NCCc1ccccn1)C1CC(=O)N(c2n[nH]c3cc(Br)ccc23)C1` (centres undefined), the Papp is less than 1 ×10⁻⁶ cm/s.

Molecule `Nc1c(C(=O)Nc2ccc(Cl)cc2)sc2nc3c(cc12)N1CCC3CC1` came in with a Papp of 697 ×10⁻⁶ cm/s.

On to `COc1ccc(-c2nc(N3CCOCC3)c3sc(CN(C)c4ncc(C(=O)NO)cn4)cc3n2)cn1`, for which the apparent permeability coefficient (Papp) came to 496 ×10⁻⁶ cm/s.

Take `N#Cc1cnc(NS(=O)(=O)c2ccc(NC(=O)Cc3ccc(F)c(Cl)c3)cc2)s1`: the Papp was less than 1 ×10⁻⁶ cm/s.

The molecule `CCOC(=O)c1cnc2ccc(-c3cncc(NS(=O)(=O)c4ccccc4)c3)cn12` had a Papp of 705 ×10⁻⁶ cm/s.

The values above are taken from PubChem BioAssay AID1508612.
